Each structure is given as a SMILES string. Values after ≈ are worked out from the molar mass of the structure shown.

From ChEMBL document CHEMBL1151354, “Isofraxidin, a cytotoxic coumarin from Micrandra elata (Euphorbiaceae)” (1980) come the findings set out here.

The test system of one assay is P388. Briefly: Cytotoxicity against mouse P388 cells. Format: functional. The conditions noted are these: read-out: ED50 (the source's name).
A further assay has as its system KB. Kind of assay: Cytotoxicity against human KB cells. In kind it is functional. The following applies: read-out: ED50 (the source's name).

In the case of `COc1cc2ccc(=O)oc2c(OC)c1O`, the EC50 in the assay on P388 was 1.7 µg/mL (≈ 7.65 µM); with KB, over 100 µg/mL.
